Assays:
Format in all cases: cell-based, chinesische Hamster
CHO-Zellen [1] = experiment: t-PA production in transformed CHO cells, medium with 7.5% FKS, supernatant, direct chromogenic assay (DCA); settings: for activation at 1 µM / activation at 1000 µM: CHO; for activation at 1 µM: read-out: % Steigerung der t-PA-Synthese; for activation at 1000 µM: read-out: Steigerung der t-PA-Produktion
Description: (§1) Der Vektor für die t-PA-Produktion wurde in einem Subklon, CHO-K1-DUX B11, integriert (Urlaub et al., Proceedings of the National Academy of Science, USA, 77: 4216-4220, 1980). Diese Zell-Linie, eine Dihydrofolat Reduktase negative Mutante (DHFR-), ist für eine DHFR-abhängige Selektion der transfizierten Zellklone geeignet. Der Vektor für die humane c-DNA kann ein bekannter Plasmid-Vektor pBR-322 oder deren Abkömmling von Escherichia coli sein. Die Promotorregion für das in Frage kommende Gen und für das DHFR-Gen stammt aus SV 40 und die Terminationsregion für beide Gene von einem Hepatitis B-Oberflächenantigen. In den Beispielen wurden CHO-K1-DUX B11-Zellen, die durch die Plasmide pETPER oder pEPEFR transformiert sind, verwendet (siehe EP-A 0117059).
(§2) Die Zellkulturen werden bei 37°C in einem Hereaus-Brutschrank inkubiert und mit einem Kohlendioxid-Luftgemisch von 7,5% CO₂ in einer relativen Luftfeuchtigkeit von 100% belüftet. Je nach Verfahrensansatz werden unterschiedliche Kulturgefäße benutzt: Spinnergefäße für 100-1000 ml Medium, Roux-Schalen (Nunc) 175 cm² (70-100 ml Medium), 75 cm² (30-50 ml Medium), 25 cm² (7-10 ml Medium) und Mehrfachkulturschalen von Costar mit 2 cm² für 1 ml Kulturen. Für die Stammhaltung werden die Zellen in einer Dichte von 0,2-0,3 x 10⁶ Zellen/ml eingesetzt und alle 2-3 Tage subkloniert.
(§3) Die Protein-Produktion stimulierenden Substanzen können zu den verschiedenen Zeitpunkten jeweils in einer 1:100 Verdünnung zugegeben werden, d.h. sie wurden zuerst in Medium gelöst oder, wenn sie schwerlöslich sind, erst in Äthylalkohol gelöst und danach in Medium zugesetzt und dann das diese Substanz enthaltende Medium dem zellenthaltenden Medium im Verhältnis 1:100 v/v zugegeben.
(§4) In den folgenden Beispielen wurden, um die Stimulierung der t-PA-Synthese hervorzurufen, Zellen einer exponentiell wachsenden Kultur entnommen und in Plastikröhrchen (Falcon) 10 Min. bei 1000 x g in einer Beckmann T 3-6 Zentrifuge abzentrifugiert. Nach Dekantieren des Überstandes wurde das Zellpellet mit frischem Medium resuspendiert.
(§5) Für die Produktion von t-PA in serumhaltigem Medium wurde als frisches Medium F12/DMEM + 7,5% FKS + Gentamycin verwendet. Die resultierende Suspension kann in 2 cm² 24 Wells-Platten bei einer Zelldichte von 0,2-0,3 x 10⁶ Zellen/ml angesetzt werden.
(§6) Aliquots von Zellüberständen und Zellextrakten wurden zu verschiedenen Zeitpunkten abgenommen bzw. hergestellt. Die Messung der Proben erfolgte entweder sofort oder nach Aufbewahrung bei -20°C mit folgenden Methoden:
Von dem synthetischen Peptidsubstrat S-2288 (D-H-Ile-Pro-Arg-p-Nitroanilin) der Firma Kabi Diagnostica wird durch das t-PA p-Nitroanilin als Reaktionsprodukt gebildet. Die Aktivität von t-PA ist zur Bildung von p-Nitroanilin proportional, die bei […], 37°C, gemessen wird.
Die spektrophotometrische Bestimmung der Enzymkinetik wurde mit einem ACP-5010-Analysengerät der Firma Eppendorf automatisch durchgeführt.
Die Aktivität des Enzyms wurde anhand dieses vorgegebenen Standards berechnet. Eine t-PA-Standardreihe von 1-15 µg/ml wurde mit einem Laborstandard hergestellt, der zu 72% aus 1-kettigem Material besteht.
Die Substratlösung (100 mM Tris/106 mM NaCl) wurde in einer Konzentration von 50 mM eingesetzt.

CHO-Zellen [2] = experiment: t-PA production in transformed CHO cells, serum-free medium (DCA or determination method not given)
Description: Diese Zell-Linie, eine Dihydrofolat Reduktase negative Mutante (DHFR-), ist für eine DHFR-abhängige Selektion der transfizierten Zellklone geeignet. […] Die Promotorregion für das in Frage kommende Gen und für das DHFR-Gen stammt aus SV 40 und die Terminationsregion für beide Gene von einem Hepatitis B-Oberflächenantigen.
Im folgenden Beispiel wird ein nachseziertes DMEM/Ham's F 12 Medium (1:1) (Gibco) als serumfreies Medium verwendet. Als Zusatz wird fötales Kälberserum (FKS) in einer Konzentration von 7,5% oder 1-2% verwendet.
as §2, §3, §4
(§7) Für die Produktion von t-PA in serumfreiem Medium wurden die Zellen zuvor 3-4 Tage in einem Medium von 1-2% FKS adaptiert, wieder abzentrifugiert und das Zellpellet in serumfreiem Medium resuspendiert und anschließend in 2 cm² 24 Wells-Platten in einer Zelldichte von 0,4-0,5 x 10⁶ Zellen/ml überführt.
as §6
Die Aktivität des Enzyms wurde anhand dieses vorgegebenen Standards berechnet.

CHO-Zellen [3] = experiment: t-PA production in transformed CHO cells, serum-free medium, ELISA; settings: for activation at 1 µM: CHO, Elisa, 1 ml supernatant vs control (0%), read-out: % Steigerung der t-PA-Synthese
Description: as §1
Als serumfreies Medium stehen verschiedene bekannte Produkte zur Verfügung (siehe z.B. BMFT-Statusseminar 12, 13. November 1985, Bundesministerium für Forschung und Technologie, 5300 Bonn 2, Seite 111-120). Im folgenden Beispiel wird ein nachseziertes DMEM/Ham's F 12 Medium (1:1) (Gibco) als serumfreies Medium verwendet. Als Zusatz wird fötales Kälberserum (FKS) in einer Konzentration von 7,5% oder 1-2% verwendet.
as §2, §3
as §4, with “resuspendiert. […]” for “resuspendiert.”
Mit Hilfe eines ELISA (Enzyme-linked-immuno-sorbent-assay) wurden die t-PA-Proben des Überstandes und des Zellextraktes quantitativ bestimmt. […]

CHO-Zellen [4] = experiment: Cell growth / cell division of transformed CHO cells
Procedure: as §2, §5, §7

CHO-Zellen [5] = experiment: t-PA production in transformed CHO cells, medium and determination method not stated
Description: as §1, §2, §3, §4
Aliquots von Zellüberständen und Zellextrakten wurden zu verschiedenen Zeitpunkten abgenommen bzw. hergestellt. Die Messung der Proben erfolgte entweder sofort oder nach Aufbewahrung bei -20°C mit folgenden Methoden: […]

CHO-Zellen [6] = experiment: t-PA production in transformed CHO cells, medium with 7.5% FKS, supernatant and cell extract, ELISA; settings: for activation at 1000 µM: CHO
Description: as §1, §2, §3, §4, §5, §6
Mit Hilfe eines ELISA (Enzyme-linked-immuno-sorbent-assay) wurden die t-PA-Proben des Überstandes und des Zellextraktes quantitativ bestimmt. Als Standard diente ein Laborstandard in einer Konzentrationsreihe von 0,038-5 µg/ml. Die Proben wurden 1:10 bis 1:1000 vorverdünnt.

## C[C@@]1(CO)[C@H](O)CC[C@@]2(C)[C@H]1CC[C@H]1C[C@@H]3C[C@@]12CC[C@]3(O)CO [Aphidicolin]
CHO-Zellen [1]; 24 h
  activation at 1 µM: 40.2%
CHO-Zellen [1]; 48 h
  activation at 1 µM: 59.9%
CHO-Zellen [1]; 72 h
  activation at 1 µM: 32.8%
CHO-Zellen [1]; 96 h
  activation at 1 µM: 14.7%
CHO-Zellen [2]; serum-free medium (Abb. 18)
  Maximum des Effekts nach Mediumwechsel: 48 h
CHO-Zellen [3]; Table 13, 1 µM, 144 h after medium change
  activation at 1 µM: 51.3%
CHO-Zellen [3]; Tables 13/14, 1 µM, 96 h after medium change
  activation at 1 µM: 36.7%
CHO-Zellen [3]; Tables 13/14, 1 µM, 120 h after medium change
  activation at 1 µM: 42%
CHO-Zellen [4]; CHO, 1 µM, after 24 h treatment, read-out: Hemmung des Zellwachstums
  inhibition at 1 µM: 5 to 10%
CHO-Zellen [5]; after 24 h, continued incubation with the substance
  t-PA-Ausbeute gesteigert: 44,9 ± 13,9%
CHO-Zellen [5]; during the 24 h incubation with the substance
  intrazelluläre t-PA-Konzentration erhöht: ca. 30%

## CCCC(=O)O [Na-Butyrat]
CHO-Zellen [1]; 48 h, Table 6, 1 mM at each medium change (Applikation Tag 0, 2, 4, 7), Mediumwechsel Tag 2, 1 ml supernatant vs control (0%)
  activation at 1000 µM: 33%
CHO-Zellen [1]; 96 h, Table 6, 1 mM at each medium change (Applikation Tag 0, 2, 4, 7), Mediumwechsel Tag 4, 1 ml supernatant vs control (0%)
  activation at 1000 µM: 107%
CHO-Zellen [1]; 168 h, Table 6, 1 mM at each medium change (Applikation Tag 0, 2, 4, 7), Mediumwechsel Tag 7, 1 ml supernatant vs control (0%)
  activation at 1000 µM: 96.6%
CHO-Zellen [1]; 216 h, Table 6, 1 mM at each medium change (Applikation Tag 0, 2, 4, 7), Mediumwechsel Tag 9, 1 ml supernatant vs control (0%)
  activation at 1000 µM: 62%
CHO-Zellen [1]; DCA, supernatant (Abb. 9B)
  maximaler t-PA-Gehalt: 47,4 ± 7,4 µg t-PA/1 x 10⁶ Zellen
CHO-Zellen [1]; after 24 h, average of DCA and Elisa, vs control
  prozentuale Steigerung im Überstand: 19,2%
CHO-Zellen [1]; day 3, medium with 7,5% FKS (Abb. 7)
  maximale Steigerung der t-PA-Produktion: 37,2 ± 5,1%
CHO-Zellen [6]; 24 h, read-out: Stimulierung der t-PA-Synthese extrazellulär
  activation at 1000 µM: 68.5%
CHO-Zellen [6]; 24 h, read-out: Stimulierung der t-PA-Synthese intrazellulär
  activation at 1000 µM: 90.9%
CHO-Zellen [6]; 48 h, read-out: Stimulierung der t-PA-Synthese extrazellulär
  activation at 1000 µM: 119%
CHO-Zellen [6]; 48 h, read-out: Stimulierung der t-PA-Synthese intrazellulär
  activation at 1000 µM: 99.7%
CHO-Zellen [6]; 72 h, read-out: Stimulierung der t-PA-Synthese extrazellulär
  activation at 1000 µM: 223%
CHO-Zellen [6]; 72 h, read-out: Stimulierung der t-PA-Synthese intrazellulär
  activation at 1000 µM: 93.9%
CHO-Zellen [6]; 96 h, read-out: Stimulierung der t-PA-Synthese extrazellulär
  activation at 1000 µM: 281%
CHO-Zellen [6]; 96 h, read-out: Stimulierung der t-PA-Synthese intrazellulär
  activation at 1000 µM: 210%
CHO-Zellen [6]; Elisa, starting value of the rise during the first 4 days
  t-PA-Konzentration im Überstand: 7,5 ± 1,1 µg t-PA/ 1 x 10⁶ Zellen
CHO-Zellen [6]; Elisa, value reached in the rise during the first 4 days
  t-PA-Konzentration im Überstand: 28,9 ± 5,3 µg t-PA/ 1 x 10⁶ Zellen
CHO-Zellen [6]; after 24 h incubation, vs control (Abb. 8)
  Zunahme des intrazellulären t-PA-Gehaltes: 43,8 ± 9,8%
CHO-Zellen [6]; value from which the content falls (until day 5) (Abb. 9C)
  intrazelluläre t-PA-Gehalt: 1,5 ± 0,2 µg t-PA/1 x 10⁶ Zellen
CHO-Zellen [2]; serum-free medium, 1 day after application
  Steigerung der t-PA-Synthese gegenüber der Kontrolle: 44,1 ± 7,1%
CHO-Zellen [2]; serum-free medium, 3 days after application
  maximale Steigerung: 143,3 ± 12,8%
CHO-Zellen [2]; serum-free medium, 6 days after addition
  Steigerungseffekt: 49,9 ± 7,0%
CHO-Zellen [3]; in 1 µM Aphidicolin-treated cultures, after 96 h
  weitere Steigerung der t-PA-Synthese: 14%

## O=C(O)CS [Thioglykolsäure]
CHO-Zellen [1]; 24 h, Table 9, 1 mM, Zeit 24 h, Applikationstag 0, 7,5% FKS, 1 ml supernatant vs control (0%)
  activation at 1000 µM: 27.6%
CHO-Zellen [1]; 24 h, Table 9, 1 mM, Zeit 24 h, Applikationstag 1, 7,5% FKS, 1 ml supernatant vs control (0%)
  activation at 1000 µM: 34.7%
CHO-Zellen [1]; 24 h, Table 9, 1 mM, Zeit 24 h, Applikationstag 2, 7,5% FKS, 1 ml supernatant vs control (0%)
  activation at 1000 µM: 34.5%
CHO-Zellen [1]; 48 h, Table 9, 1 mM, Zeit 48 h, Applikationstag 0, 7,5% FKS, 1 ml supernatant vs control (0%)
  activation at 1000 µM: 16.9%
CHO-Zellen [1]; 48 h, Table 9, 1 mM, Zeit 48 h, Applikationstag 1, 7,5% FKS, 1 ml supernatant vs control (0%)
  activation at 1000 µM: 17.1%
CHO-Zellen [1]; 48 h, Table 9, 1 mM, Zeit 48 h, Applikationstag 2, 7,5% FKS, 1 ml supernatant vs control (0%)
  activation at 1000 µM: 16.3%
CHO-Zellen [1]; 72 h, Table 9, 1 mM, Zeit 72 h, Applikationstag 0, 7,5% FKS, 1 ml supernatant vs control (0%)
  activation at 1000 µM: 14.7%
CHO-Zellen [1]; 72 h, Table 9, 1 mM, Zeit 72 h, Applikationstag 1, 7,5% FKS, 1 ml supernatant vs control (0%)
  activation at 1000 µM: 10.2%
CHO-Zellen [1]; 72 h, Table 9, 1 mM, Zeit 72 h, Applikationstag 2, 7,5% FKS, 1 ml supernatant vs control (0%)
  activation at 1000 µM: 9.4%
CHO-Zellen [1]; 96 h, Table 9, 1 mM, Zeit 96 h, Applikationstag 0, 7,5% FKS, 1 ml supernatant vs control (0%)
  activation at 1000 µM: 3.4%
CHO-Zellen [1]; 96 h, Table 9, 1 mM, Zeit 96 h, Applikationstag 1, 7,5% FKS, 1 ml supernatant vs control (0%)
  activation at 1000 µM: 2.7%
CHO-Zellen [1]; 96 h, Table 9, 1 mM, Zeit 96 h, Applikationstag 2, 7,5% FKS, 1 ml supernatant vs control (0%)
  activation at 1000 µM: 0.5%
CHO-Zellen [1]; Table 8, 7,5% FKS, bracketed value = concentration of the single sample
  optimaler Dosisbereich: 1 mM
CHO-Zellen [1]; Table 8, mean ± SE, n = 6-19, runs of 3 days, added day 0 to 2, 7,5% FKS, 1 ml supernatant vs control (0%)
  % Steigerung der t-Pa-Synthese Durchschnitt: 31,2 ± 3,2%
CHO-Zellen [1]; Table 8, single sample, 7,5% FKS, 1 ml supernatant vs control (0%)
  % Steigerung der t-Pa-Synthese Maximum: 66,4%
CHO-Zellen [1]; duration of raised production after treatment, independent of application day
  t-PA-Produktion erhöht (Dauer): 72 h
CHO-Zellen [1]; time to maximal effect (Abb. 15)
  Maximalwert des Steigerungseffektes erreicht nach: 24 h
CHO-Zellen [6]; 1 mM, after 24 h (Abb. 17C)
  maximale intrazelluläre t-PA-Konzentration: 1,1 ± 0,1 µg/l x 10⁶ Zellen
CHO-Zellen [6]; 96 h, 1 mM, Elisa, per 1 x 10⁶ cells, day 4 (Abb. 17B), read-out: Steigerungsrate
  activation at 1000 µM: ~35%
CHO-Zellen [4]; serum-free medium
  Hemmung der Zellteilung: 10-20%
CHO-Zellen [5]; day 5, medium not clearly stated
  extrazelluläre t-PA-Konzentration gegenüber der Kontrolle gesteigert: 10,7%

Reference: patent EP0315782A2, “Method for the production of proteins” (priority 1987, dated 1989)
